Results taken from patent US6943183B2 (Pfizer Inc, priority 2000, dated 2005).

Target: T1, SF9 affinity purified rat FPT (Rattus norvegicus, UniProt Q02293+Q04631)
T1 construct: made in house; host or cells: Sf9 insect cells
Experiment: PFT (FPT) inhibitory activity assay, radiolabeled farnesyl pyrophosphate and biotinyl peptide, streptavidin beads
Format: biochemical
Conditions: HEPES buffer pH 7.4, 30° C., 30 minutes; read-out: FTase IC50
Summary of the method: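 Rat FPT expressed in SF9 cells was incubated 30 minutes at 30° C. with compound (in 10% DMSO), radiolabeled farnesyl pyrophosphate and biotinylated peptide. Buffer: HEPES pH 7.4, ZnCl2 20 μM, MgCl2 and DTT 5 mM each, 0.1% PEG 8000, 5 mM potassium phosphate (also run without phosphate). Product captured on streptavidin beads in magnesium acetate/H3PO4 stop buffer.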

| Compound | IC50 |
| --- | --- |
| O=C1CCCc2c1ccc(O[C@H](Cn1ccnc1)c1ccccc1)c2CNc1ccc(F)cc1 [Compound 151, 5-[(4-Fluoro-phenylamino)-methyl]-6-((S)-2-imidazol-1-yl-1-phenyl-ethoxy)-3,4-dihydro-2H-napthalen-1-one] | 19 nM |
| O=C1CCCc2c1ccc(O[C@H](Cn1ccnc1)c1ccccc1)c2CNc1ccc2c(c1)OCCO2 [Compound 152, 5-[(2,3-Dihydro-benzo[1,4]dioxin-6-ylamino)-methyl]-6-((S)-2-imidazol-1-yl-1-phenyl-ethoxy)-3,4-dihydro-2H-napthalen-1-one] | 5 nM |
| O=C1CCCc2c1ccc(O[C@H](Cn1ccnc1)c1ccccc1)c2CSCc1ccc(Cl)c(Cl)c1 [Compound 153, 5-(3,4-Dichloro-benzylsulfanylmethyl)-6-((1S)-2-imidazol-1-yl-1-phenyl-ethoxy)-3,4-dihydro-2H-naphthalen-1-one] | 15 nM |
| COC(=O)c1ccccc1S(=O)(=O)Cc1c(O[C@H](Cn2ccnc2)c2ccccc2)ccc2c1CCCC2=O [Compound 154, Methyl 2-{[(2-{[(1S)-2-(1H-Imidazol-1-yl)-1-phenylethyl]oxy}-5-oxo-5,6,7,8-tetrahydro-1-naphthalenyl)methyl]sulfonyl}benzoate] | 2.6 nM |
| COC(=O)c1ccc(S(=O)(=O)Cc2c(O[C@H](Cn3ccnc3)c3ccccc3)ccc3c2CCCC3=O)cc1 [Compound 155, Methyl 4-{[(2-{[(1S)-2-(1H-Imidazol-1-yl)-1-phenylethyl]oxy}-5-oxo-5,6,7,8-tetrahydro-1-naphthalenyl)methyl]sulfonyl}benzoate] | 20 nM |
| COC(=O)c1cccc(S(=O)(=O)Cc2c(O[C@H](Cn3ccnc3)c3ccccc3)ccc3c2CCCC3=O)c1 [Compound 156] | 5 nM |
| COC(=O)c1ccc(SCc2c(O[C@H](Cn3ccnc3)c3ccccc3)ccc3c2CCCC3=O)cc1 [Compound 157, Methyl 4-{[(2-{[(1S)-2-(1H-Imidazol-1-yl)-1-phenylethyl]oxy}-5-oxo-5,6,7,8-tetrahydro-1-naphthalenyl)methyl]sulfanyl}benzoate] | 4 nM |
| COC(=O)c1cccc(SCc2c(O[C@H](Cn3ccnc3)c3ccccc3)ccc3c2CCCC3=O)c1 [Compound 158, Methyl 3-{[(2-{[(1S)-2-(1H-Imidazol-1-yl)-1-phenylethyl]oxy}-5-oxo-5,6,7,8-tetrahydro-1-naphthalenyl)methyl]sulfanyl}benzoate] | 4 nM |
| O=C(O)c1ccccc1S(=O)(=O)Cc1c(O[C@H](Cn2ccnc2)c2ccccc2)ccc2c1CCCC2=O [Compound 159, 2-{[(2-{[(1S)-2-(1H-Imidazol-1-yl)-1-phenylethyl]oxy}-5-oxo-5,6,7,8-tetrahydro-1-naphthalenyl)methyl]sulfonyl}benzoic Acid] | 5.5 nM |
| O=C(O)c1ccc(S(=O)(=O)Cc2c(O[C@H](Cn3ccnc3)c3ccccc3)ccc3c2CCCC3=O)cc1 [Compound 160, 4-{[(2-{[(1S)-2-(1H-Imidazol-1-yl)-1-phenylethyl]oxy}-5-oxo-5,6,7,8-tetrahydro-1-naphthalenyl)methyl]sulfonyl}benzoic Acid] | 10 nM |
| O=C(O)c1cccc(S(=O)(=O)Cc2c(O[C@H](Cn3ccnc3)c3ccccc3)ccc3c2CCCC3=O)c1 [Compound 161, 3-{[(2-{[(1S)-2-(1H-Imidazol-1-yl)-1-phenylethyl]oxy}-5-oxo-5,6,7,8-tetrahydro-1-naphthalenyl)methyl]sulfonyl}benzoic Acid] | 5 nM |
| O=C(O)c1ccc(SCc2c(O[C@H](Cn3ccnc3)c3ccccc3)ccc3c2CCCC3=O)cc1 [Compound 162, 4-{[(2-{[(1S)-2-(1H-Imidazol-1-yl)-1-phenylethyl]oxy}-5-oxo-5,6,7,8-tetrahydro-1-naphthalenyl)methyl]sulfanyl}benzoic Acid] | 8 nM |
| O=C(O)c1cccc(SCc2c(O[C@H](Cn3ccnc3)c3ccccc3)ccc3c2CCCC3=O)c1 [Compound 163, 3-{[(2-{[(1S)-2-(1H-Imidazol-1-yl)-1-phenylethyl]oxy}-5-oxo-5,6,7,8-tetrahydro-1-naphthalenyl)methyl]sulfanyl}benzoic Acid] | 5 nM |
| CNC(=O)c1ccccc1S(=O)(=O)Cc1c(O[C@H](Cn2ccnc2)c2ccccc2)ccc2c1CCCC2=O [Compound 164, 2-{[(2-{[(1S)-2-(1H-Imidazol-1-yl)-1-phenylethyl]oxy}-5-oxo-5,6,7,8-tetrahydro-1-naphthalenyl)methyl]sulfonyl)-N-methylbenzamide] | 5.3 nM |
| O=C(NCCO)c1ccccc1S(=O)(=O)Cc1c(O[C@H](Cn2ccnc2)c2ccccc2)ccc2c1CCCC2=O [Compound 165, N-(2-Hydroxyethyl)-2-{[(2-{[(1S)-2-(1H-imidazol-1-yl)-1-phenylethyl]oxy}-5-oxo-5,6,7,8-tetrahydro-1-naphthalenyl)methyl]sulfonyl}benzamide] | 6.4 nM |
| O=C(O)CCNC(=O)c1ccc(S(=O)(=O)Cc2c(O[C@H](Cn3ccnc3)c3ccccc3)ccc3c2CCCC3=O)cc1 [Compound 166, N-4-{[(2-{[(1S)-2-(1H-Imidazol-1-yl)-1-phenylethyl]oxy}-5-oxo-5,6,7,8-tetrahydro-1-naphthalenyl)methyl]sulfonyl}benzoyl-β-alanine] | 30 nM |
| O=C(O)CCNC(=O)c1ccccc1S(=O)(=O)Cc1c(O[C@H](Cn2ccnc2)c2ccccc2)ccc2c1CCCC2=O [Compound 167, N-2-{[(2-{[(1S)-2-(1H-Imidazol-1-yl)-1-phenylethyl]oxy}-5-oxo-5,6,7,8-tetrahydro-1-naphthalenyl)methyl]sulfonyl}benzoyl-β-alanine] | 7 nM |
| O=C(O)CCNC(=O)c1cccc(S(=O)(=O)Cc2c(O[C@H](Cn3ccnc3)c3ccccc3)ccc3c2CCCC3=O)c1 [Compound 168, N-3-{[(2-{[(1S)-2-(1H-Imidazol-1-yl)-1-phenylethyl]oxy}-5-oxo-5,6,7,8-tetrahydro-1-naphthalenyl)methyl]sulfonyl}benzoyl-β-alanine] | 10 nM |
| O=C(O)CCNC(=O)c1ccccc1SCc1c(O[C@H](Cn2ccnc2)c2ccccc2)ccc2c1CCCC2=O [Compound 169, N-2-{[(2-{[(1S)-2-(1H-Imidazol-1-yl)-1-phenylethyl]oxy}-5-oxo-5,6,7,8-tetrahydro-1-naphthalenyl)methyl]sulfanyl}benzoyl-β-alanine] | 7 nM |
| O=C(O)CCNC(=O)c1ccc(SCc2c(O[C@H](Cn3ccnc3)c3ccccc3)ccc3c2CCCC3=O)cc1 [Compound 170, N-4-{[(2-{[(1S)-2-(1H-Imidazol-1-yl)-1-phenylethyl]oxy}-5-oxo-5,6,7,8-tetrahydro-1-naphthalenyl)methyl]sulfanyl}benzoyl-β-alanine] | 7 nM |
| O=C(O)CCNC(=O)c1cccc(SCc2c(O[C@H](Cn3ccnc3)c3ccccc3)ccc3c2CCCC3=O)c1 [Compound 171, N-3-{[(2-{[(1S)-2-(1H-Imidazol-1-yl)-1-phenylethyl]oxy}-5-oxo-5,6,7,8-tetrahydro-1-naphthalenyl)methyl]sulfanyl}benzoyl-β-alanine] | 6 nM |
| O=C(NCCO)c1cccc(SCc2c(O[C@H](Cn3ccnc3)c3ccccc3)ccc3c2CCCC3=O)c1 [Compound 172, N-(2-Hydroxyethyl)-3-{[(2-{[(1S)-2-(1H-imidazol-1-yl)-1-phenylethyl]oxy}-5-oxo-5,6,7,8-tetrahydro-1-naphthalenyl)methyl]sulfanyl}benzamide] | 5 nM |
| O=C(NCCO)c1ccccc1SCc1c(O[C@H](Cn2ccnc2)c2ccccc2)ccc2c1CCCC2=O [Compound 173, N-(2-Hydroxyethyl)-2-{[(2-{[(1S)-2-(1H-imidazol-1-yl)-1-phenylethyl]oxy}-5-oxo-5,6,7,8-tetrahydro-1-naphthalenyl)methyl]sulfanyl}benzamide] | 4 nM |
| O=C(NCCO)c1ccc(SCc2c(O[C@H](Cn3ccnc3)c3ccccc3)ccc3c2CCCC3=O)cc1 [Compound 174, N-(2-Hydroxyethyl)-4-{[(2-{[(1S)-2-(1H-imidazol-1-yl)-1-phenylethyl]oxy}-5-oxo-5,6,7,8-tetrahydro-1-naphthalenyl)methyl]sulfanyl}benzamide] | 3 nM |
| O=C(NCCO)c1ccc(S(=O)(=O)Cc2c(O[C@H](Cn3ccnc3)c3ccccc3)ccc3c2CCCC3=O)cc1 [Compound 175, N-(2-Hydroxyethyl)-4-{[(2-{[(1S)-2-(1H-imidazol-1-yl)-1-phenylethyl]oxy}-5-oxo-5,6,7,8-tetrahydro-1-naphthalenyl)methyl]sulfonyl}benzamide] | 10 nM |
| O=C(NCCO)c1cccc(S(=O)(=O)Cc2c(O[C@H](Cn3ccnc3)c3ccccc3)ccc3c2CCCC3=O)c1 [Compound 176, N-(2-Hydroxyethyl)-3-{[(2-{[(1S)-2-(1H-imidazol-1-yl)-1-phenylethyl]oxy}-5-oxo-5,6,7,8-tetrahydro-1-naphthalenyl)methyl]sulfonyl}benzamide] | 7 nM |
| CN(C)CCNC(=O)c1ccc(SCc2c(O[C@H](Cn3ccnc3)c3ccccc3)ccc3c2CCCC3=O)cc1 [Compound 177, N-[2-(Dimethylamino)ethyl]-4-{[(2-{[(1S)-2-(1H-imidazol-1-yl)-1-phenylethyl]oxy}-5-oxo-5,6,7,8-tetrahydro-1-naphthalenyl)methyl]sulfanyl}benzamide] | 3 nM |
| CN(C)CCNC(=O)c1cccc(SCc2c(O[C@H](Cn3ccnc3)c3ccccc3)ccc3c2CCCC3=O)c1 [Compound 178, N-[2-(Dimethylamino)ethyl]-3-{[(2-{[(1S)-2-(1H-imidazol-1-yl)-1-phenylethyl]oxy}-5-oxo-5,6,7,8-tetrahydro-1-naphthalenyl)methyl]sulfanyl}benzamide] | 8 nM |
| CN(C)CCNC(=O)c1ccccc1SCc1c(O[C@H](Cn2ccnc2)c2ccccc2)ccc2c1CCCC2=O [Compound 179, N-[2-(Dimethylamino)ethyl]-2-{[(2-{[(1S)-2-(1H-imidazol-1-yl)-1-phenylethyl]oxy}-5-oxo-5,6,7,8-tetrahydro-1-naphthalenyl)methyl]sulfanyl}benzamide] | 6 nM |
